Measured values reported in US20210040134A1, “COMBINATIONS OF MACROLIDE COMPOUNDS AND IMMUNE CHECKPOINT INHIBITORS” (ISR IMMUNE SYSTEM REGULATION HOLDING AB (PUBL), priority 2018, published 2021).

Columns and labels:
[1] = Human microsome stability assay; assay type: in vitro ADME; conditions: pH 7.4, human liver microsomes, read-out: T½
Method: Rate of metabolism in microsomes was tested as follows:
Human liver microsomes were diluted with buffer C (0.1 M Potassium Phosphate buffer, 1.0 mM EDTA, pH 7.4) to a concentration of […]. Microsomal stability studies were carried out by adding 30 μL of 1.5 μM compound spiking solution to wells (1.5 μL of 500 μM spiking solution (10 μL of 10 mM DMSO stock solution into 190 μL ACN to eventually generate final test concentration of 1 uM) and 18.75 μL of 20 mg/mL liver microsomes into 479.75 μL of Buffer C). All samples were pre-incubated for approximately 15 minutes at 37° C. Following this, the reaction was initiated by adding 15 μL of the NADPH solution (6 mM) with gentle mixing. Aliquots (40 μL) were removed at 0, 5, 15, 30 and 45 minutes and quenched with ACN containing internal standard (135 μL). Protein was removed by centrifugation (4000 rpm, 15 min) and the sample plate analysed for compound concentration by LC-MS/MS. Half-lives were then calculated by standard methods, comparing the concentration of analyte with the amount originally present.
The metabolic stability of the compounds of the invention was assessed in a standard human microsome stability assay (see general methods).

human TLR2 = biological target: T1, human TLR2 (Homo sapiens, UniProt O60603); assay: TLR2 reporter assay (HEK-293-TLR, SEAP); assay type: cell-based; conditions: concentrations up to 20 uM
T1 construct: host or cells: recombinant HEK-293-TLR cell lines
Method: Samples and controls were tested in duplicate on recombinant HEK-293-TLR cell lines using a cell reporter assay at Invivogen using their standard assay conditions. These cell lines functionally over-express human TLR2 protein as well as a reporter gene which is a secreted alkaline phosphatase (SEAP). The production of this reporter gene is driven by an NFkB inducible promoter. The TLR reporter cell lines activation results are given as optical density values (OD).
20 μl of each test article were used to stimulate the hTLR2 reporter cell lines in a 200 μl of final reaction volume. Samples were tested in duplicate, with at least two concentrations tested—20 uM and 10 uM.
Compounds were tested using a TLR2 reporter assay (see general methods) that measured for stimulation of the TLR2 receptor. Stimulatory effect was measured as an increase in optical density (OD) due to release of secreted alkaline phosphatase (SEAP) and is shown in table 4: […]

[2] = test system: E. coli, S. salivarius, L. casei, B. longum, M. luteus; assay: MIC assay, summary over all bacterial strains tested; assay type: cell-based; conditions: any of the strains tested
Method: The bioactivity of macrolide compounds against 4 strains of common gut bacteria (Escherichia coli, Streptococcus salivarius subsp. salivarius, Lactobacillus casei and Bifidobacterium longum subsp. infantis) and common mammalian skin isolate Micrococcus luteus, was assessed using the Minimum Inhibitory Concentration (MIC) assay. Bacterial strains were purchased from DSMZ (Brunswick, Germany) except M. luteus which was obtained from NCIMB, and stored in 20% glycerol at −80° C. Stock solutions (100% DMSO) of positive controls (azithromycin and erythromycin), and of test compounds 1 and 2 were diluted in broth to working stock concentrations of 256 μg/ml (final assay testing concentration range 128 μg/ml to 0.00391 μg/ml). Stock solutions of all other compounds were diluted in broth to working stock concentrations of 128 μg/ml (final assay testing concentration range 64 μg/ml to 0.00195 μg/ml). Bacterial strains were cultivated in appropriate broth in an anaerobic chamber at 37° C., except for M. luteus which was incubated aerobically at 37° C. 18 h cultures were diluted in broth to an OD595 of 0.1 and then further diluted 1:10. In 96-well plates, in duplicate, 200 μl working stock of test compound was transferred to well 1 and serially diluted (1:2) in broth. 100 μl bacterial suspension was aliquoted into each well and mixed thoroughly. Appropriate sterility controls were included and plates were incubated in an anaerobic chamber, or aerobically (M. luteus) at 37° C. for 18 h. The MIC was determined to be the concentration of test compound in the first well with no visible growth.

[3] = Caco-2 bidirectional permeability assay; assay type: in vitro ADME; conditions: human, Caco-2; B to A permeability divided by A to B permeability
Method: (§1) 10 μM Test article was added to the apical (A) surface of Caco-2 cell monolayers (in HBSS buffer with 0.3% DMSO and 5 μM LY at 37 degrees C.) and compound permeation into the basolateral (B) compartment measured following 90 minutes incubation. This was also performed in the reverse direction (basolateral to apical) to investigate active transport. LC-MS/MS is used to quantify levels of both the test and standard control compounds. Efflux ratio was calculated by dividing the B to A permeability by the A to B permeability.
(§2) Drug permeability:Papp=(VA/(Area×time))×([drug]accepter/(([drug]initial,donor)×Dilution Factor)
(§3) The permeability of the compounds of the invention was assessed in a standard caco-2 bidirectional permeability assay (see general methods).

Caco-2 cell monolayers = assay: Caco-2 bidirectional permeability assay; assay type: in vitro ADME; conditions: Caco-2, 10 μM test article, 90 minutes
Method: as §1, §2, §3

T1 sequence (O60603 21-784): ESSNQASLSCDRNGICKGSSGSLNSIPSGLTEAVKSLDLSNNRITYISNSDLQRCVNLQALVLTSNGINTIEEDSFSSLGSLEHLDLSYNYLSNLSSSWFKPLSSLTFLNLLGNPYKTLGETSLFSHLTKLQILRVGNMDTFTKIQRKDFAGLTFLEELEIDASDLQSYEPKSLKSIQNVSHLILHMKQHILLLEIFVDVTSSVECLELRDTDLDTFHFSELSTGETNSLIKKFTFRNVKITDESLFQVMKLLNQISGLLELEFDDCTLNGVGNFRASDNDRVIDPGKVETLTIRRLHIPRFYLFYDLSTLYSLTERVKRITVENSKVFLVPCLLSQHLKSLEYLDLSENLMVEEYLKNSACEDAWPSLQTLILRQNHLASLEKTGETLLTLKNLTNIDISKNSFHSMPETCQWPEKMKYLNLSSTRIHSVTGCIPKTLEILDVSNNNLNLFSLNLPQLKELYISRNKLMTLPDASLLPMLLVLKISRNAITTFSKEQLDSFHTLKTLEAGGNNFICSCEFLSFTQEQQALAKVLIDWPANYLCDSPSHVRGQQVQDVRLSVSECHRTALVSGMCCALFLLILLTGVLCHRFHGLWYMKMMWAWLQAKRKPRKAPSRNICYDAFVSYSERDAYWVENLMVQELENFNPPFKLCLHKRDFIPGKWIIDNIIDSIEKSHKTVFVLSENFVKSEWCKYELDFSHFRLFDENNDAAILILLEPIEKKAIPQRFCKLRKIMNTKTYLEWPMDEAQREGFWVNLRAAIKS

Structure (SMILES)	half-life at 1 uM [1]	TLR2 stimulation (in words) (human TLR2)	efflux ratio at 90 minutes, 10 μM [3]	Papp (Caco-2 cell monolayers)	antibacterial activity against the bacterial strains tested (in words) [2]
CC1O[C@@H](O[C@H]2[C@H](C)[C@@H](O)[C@](C)(O)C[C@@H](C)C(=O)[C@H](C)[C@@H](O)[C@@H](C)[C@@H](C3CCC3)OC(=O)[C@@H]2C)CC(N(C)C)[C@@H]1O (some centres unmarked) [Compound 5]	–	–	–	–	no antibacterial activity
CC1O[C@@H](O[C@H]2[C@H](C)[C@@H](O)[C@](C)(O)C[C@@H](C)C(=O)[C@H](C)[C@@H](O)[C@@H](C)[C@@H](C)OC(=O)[C@@H]2C)CC(N(C)C)[C@@H]1O (some centres unmarked) [Compound 8]	–	–	–	–	no antibacterial activity
CC[C@H]1OC(=O)[C@H](C)[C@@H](O[C@H]2C[C@@](C)(OC)[C@@H](O)[C@H](C)O2)[C@H](C)[C@@H](O[C@@H]2O[C@H](C)C[C@H](N(C)C)[C@H]2O)[C@](C)(O)C[C@@H](C)CN(C)[C@H](C)[C@@H](O)[C@]1(C)O [Azithromycin, reference compound]	4.08 h	little or no stimulation	> 78	<0.14 × 10^6/cm · s^−1	potent activity
CC[C@H]1OC(=O)[C@H](C)[C@@H](O[C@H]2CC(N(C)C)[C@H](O)C(C)O2)[C@H](C)[C@@H](O)[C@](C)(O)C[C@@H](C)N(C)C[C@H](C)[C@@H](O)[C@]1(C)O (some centres unmarked) [Compound 17]	–	stimulated TLR2 at concentrations down to 10 uM	–	–	–
CC[C@H]1OC(=O)[C@H](C)[C@@H](O[C@H]2CC(N(C)C)[C@H](O)C(C)O2)[C@H](C)[C@@H](O)[C@](C)(O)C[C@@H](C)CN(C)[C@H](C)[C@@H](O)[C@H]1C (some centres unmarked) [Compound 4]	–	–	–	–	no antibacterial activity

More lines, main results first:

half-life at 1 uM [1]	TLR2 stimulation (in words) (human TLR2)	efflux ratio at 90 minutes, 10 μM [3]	Papp (Caco-2 cell monolayers)	Structure (SMILES)	antibacterial activity against the bacterial strains tested (in words) [2]
0.517 h	little or no stimulation	–	–	CC[C@H]1OC(=O)[C@H](C)[C@@H](O[C@H]2C[C@@](C)(OC)[C@@H](O)[C@H](C)O2)[C@H](C)[C@@H](O[C@@H]2O[C@H](C)C[C@H](N(C)C)[C@H]2O)[C@](C)(O)C[C@@H](C)C(=O)[C@H](C)[C@@H](O)[C@]1(C)O [Erythromycin, reference compound]	potent activity
–	little or no stimulation	–	–	CC[C@H]1OC(=O)[C@H](C)[C@@H](O[C@H]2CC(N(C)C)[C@H](O)C(C)O2)[C@H](C)[C@@H](O)[C@](C)(O)C[C@@H](C)C(=O)[C@H](C)[C@@H](O)[C@H]1C (some centres unmarked) [Compound 3]	no antibacterial activity
0.933 h	–	–	–	CC[C@H]1OC(=O)[C@H](C)[C@@H](O[C@H]2CC(N(C)C)[C@H](O)C(C)O2)[C@H](C)[C@@H](O)[C@](C)(O)C[C@@H](C)C(O)[C@H](C)[C@@H](O)[C@H]1C (some centres unmarked) [Compound 7]	no antibacterial activity
1.67 h	–	–	–	CC(O)[C@H]1OC(=O)[C@H](C)[C@@H](O[C@H]2C[C@@H](N(C)C)[C@H](O)[C@@H](C)O2)[C@H](C)[C@@H](O)[C@](C)(O)C[C@@H](C)C(=O)[C@H](C)[C@@H](O)[C@H]1C (some centres unmarked) [Compound 9, 14-hydroxy angolosamine erythronolide B]	no antibacterial activity
1.82 h	–	–	–	CC[C@H]1OC(=O)[C@H](C)[C@@H](O[C@H]2CC(NC)[C@H](O)C(C)O2)[C@H](C)[C@@H](O)[C@](C)(O)C[C@@H](C)C(=O)[C@H](C)[C@@H](O)[C@H]1C (some centres unmarked) [Compound 6]	no antibacterial activity
